Measurements as given in paper PMC10712727, “Safety, Tolerability, and Pharmacokinetics of Senaparib, a Novel PARP1/2 Inhibitor, in Chinese Patients With Advanced Solid Tumors: A Phase I Trial” (The Oncologist, 2023).

Test system: patients with advanced solid tumors
Experiment: Safety: treatment-emergent and senaparib-related adverse events graded per NCI CTCAE v4.03
Format: in vivo
Conditions: for ALT increased, All / ALT increased, Gr≥3 / AST increased, All / AST increased, Gr≥3 / Abdominal distension, All / Abdominal distension, Gr≥3 / Anemia (incl. hemoglobin decreased), All / Anemia (incl. hemoglobin decreased), Gr≥3 / Appetite decreased, All / Appetite decreased, Gr≥3 / Asthenia, All / Asthenia, Gr≥3 / Blood bilirubin increased, All / Blood bilirubin increased, Gr≥3 / Blood creatinine increased, All / Blood creatinine increased, Gr≥3 / Hypokalemia, All / Hypokalemia, Gr≥3 / Hyponatremia, All / Hyponatremia, Gr≥3 / Nausea, All / Nausea, Gr≥3 / Neutrophil count decreased, All / Neutrophil count decreased, Gr≥3 / Pain in extremity, All / Pain in extremity, Gr≥3 / Platelet count decreased, All / Platelet count decreased, Gr≥3 / Protein in urine, All / Protein in urine, Gr≥3 / Vomiting, All / Vomiting, Gr≥3 / WBC decreased, All / WBC decreased, Gr≥3: TEAE
Protocol: This phase I, open-label, multicenter, dose-escalation, and dose-expansion study was conducted at three national clinical institutions in China. […] At baseline, all patients enrolled in the dose-escalation phase had to have at least one evaluable lesion, and those in the dose-expansion period had to have at least one measurable lesion, according to Response Evaluation Criteria in Solid Tumors version 1.1 (RECIST v1.1).[16] Entry to the dose-expansion cohort required the presence of a BRCA mutation, with the exception of patients with ovarian carcinoma, fallopian tube carcinoma, and primary peritoneal carcinoma. Full study eligibility criteria are provided in Supplementary Table S1.
Dose escalation was conducted using a modified Fibonacci 3 + 3 method (Supplementary Fig. S1).[17] Patients were administered oral senaparib from a planned starting dose of 2 mg once daily (QD), with preliminary dose escalation to 120 mg via nine dose groups, in order of their entry into the study. At a given dose level, each patient received a single dose of senaparib followed by a 7-day washout period. They then entered a continuous dosing period to confirm the safety and PK profile, in which they received senaparib QD from day 1 to day 21 of each 3-week cycle. Progression to the next higher dose required approval from the Data Safety Monitoring Committee (DSMC) upon review of the safety and PK data of the previous dose. A 50-mg twice-daily (BID) dosing group was added (planned enrollment, n = 6 patients) based on a DSMC review of the safety, PK, and efficacy analysis of the completed QD dose groups in the phase I clinical trial of senaparib dose escalation in Australia (NCT03507543), which commenced prior to the start of this trial.
The dose-expansion period included 3 populations: dose groups in which at least one patient achieved complete response (CR) or partial response (PR) per RECIST v1.1[16] and 1 dose group higher (evaluated for safety), as well as the dose group at the maximum tolerated dose (MTD)/recommended phase II dose (RP2D). Each of these groups included those patients in the respective dose-escalation group plus a planned additional 10 patients (approximately 20 patients in the MTD/RP2D group) with BRCA^mut+ solid tumors (ovarian, breast, or prostate cancer were preferred, and ovarian cancer could be BRCA wild type). Patients received senaparib monotherapy orally QD or BID (50-mg dose only) over each 3-week cycle until disease progression or unacceptable toxicity.
DLTs were predefined toxicities (Supplementary Table S2) recorded over the 7 days following the single-dose administration of senaparib and during the first treatment cycle (day 1-day 21) for each dose group in the dose-escalation period only. The MTD was defined as the maximum dose at which ≤1/6 patients experienced a DLT. Senaparib PK parameters were derived from blood samples collected from patients after the single administration, and at regular intervals during the first cycle of the dose-escalation and dose-expansion periods. Plasma concentrations of senaparib were determined using high-performance liquid chromatography-tandem mass spectrometry. Tumor response was assessed every 6 weeks per RECIST v1.1,[16] recording objective response rate (ORR), disease control rate (DCR), duration of response (DOR), and progression-free survival (PFS) by dose level for all patients and for those harboring BRCA^mut+ tumors.

O=C(c1cc(Cn2c(=O)[nH]c(=O)c3c(F)cccc32)ccc1F)N1CCN(c2ncccn2)CC1 [Senaparib]
TEAEs leading to death, patients (120 mg QD n = 4): 0 n (%)
TEAEs leading to dose discontinuation, events (120 mg QD n = 4): 2 n ev
TEAEs leading to dose discontinuation, patients (120 mg QD n = 4): 1 (25.0) n (%)
TEAEs leading to dose interruption, events (120 mg QD n = 4): 3 n ev
TEAEs leading to dose interruption, patients (120 mg QD n = 4): 2 (50.0) n (%)
TEAEs leading to dose reduction, events (120 mg QD n = 4): 0 n ev
TEAEs leading to dose reduction, patients (120 mg QD n = 4): 0 n (%)
TRAEs Grade ≥3, events (120 mg QD n = 4): 6 n ev
TRAEs Grade ≥3, patients (120 mg QD n = 4): 3 (75.0) n (%)
TRAEs, events (120 mg QD n = 4): 47 n ev
TRAEs, patients (120 mg QD n = 4): 4 (100) n (%)
Vomiting TRAE, All (120 mg QD n = 4): 1 (25.0) n (%)
Vomiting TRAE, Gr≥3 (120 mg QD n = 4): 0 n (%)
WBC decreased TRAE, All (120 mg QD n = 4): 4 (100) n (%)
WBC decreased TRAE, Gr≥3 (120 mg QD n = 4): 0 n (%)
Grade ≥3 TRAEs (2-, 10-, 40-, and 60-mg dose groups): no grade ≥3 TRAEs
Grade ≥3 TRAEs, incidence (highest) (120-mg dose group): 75.0%
ALT increased, All (2 mg QD n = 1): 0 n (%)
ALT increased, Gr≥3 (2 mg QD n = 1): 0 n (%)
AST increased, All (2 mg QD n = 1): 0 n (%)
AST increased, Gr≥3 (2 mg QD n = 1): 0 n (%)
Abdominal distension, All (2 mg QD n = 1): 0 n (%)
Abdominal distension, Gr≥3 (2 mg QD n = 1): 0 n (%)
Anemia (incl. hemoglobin decreased), All (2 mg QD n = 1): 0 n (%)
Anemia (incl. hemoglobin decreased), Gr≥3 (2 mg QD n = 1): 0 n (%)
Appetite decreased, All (2 mg QD n = 1): 1 (100) n (%)
Appetite decreased, Gr≥3 (2 mg QD n = 1): 0 n (%)
Asthenia, All (2 mg QD n = 1): 1 (100) n (%)
Asthenia, Gr≥3 (2 mg QD n = 1): 0 n (%)
Blood bilirubin increased, All (2 mg QD n = 1): 0 n (%)
Blood bilirubin increased, Gr≥3 (2 mg QD n = 1): 0 n (%)
Blood creatinine increased, All (2 mg QD n = 1): 0 n (%)
Blood creatinine increased, Gr≥3 (2 mg QD n = 1): 0 n (%)
Hypokalemia, All (2 mg QD n = 1): 1 (100) n (%)
Hypokalemia, Gr≥3 (2 mg QD n = 1): 0 n (%)
Hyponatremia, All (2 mg QD n = 1): 0 n (%)
Hyponatremia, Gr≥3 (2 mg QD n = 1): 0 n (%)
Nausea, All (2 mg QD n = 1): 0 n (%)
Nausea, Gr≥3 (2 mg QD n = 1): 0 n (%)
Neutrophil count decreased, All (2 mg QD n = 1): 0 n (%)
Neutrophil count decreased, Gr≥3 (2 mg QD n = 1): 0 n (%)
Pain in extremity, All (2 mg QD n = 1): 0 n (%)
Pain in extremity, Gr≥3 (2 mg QD n = 1): 0 n (%)
Platelet count decreased, All (2 mg QD n = 1): 0 n (%)
Platelet count decreased, Gr≥3 (2 mg QD n = 1): 0 n (%)
Protein in urine, All (2 mg QD n = 1): 0 n (%)
Protein in urine, Gr≥3 (2 mg QD n = 1): 0 n (%)
Vomiting, All (2 mg QD n = 1): 0 n (%)
Vomiting, Gr≥3 (2 mg QD n = 1): 0 n (%)
WBC decreased, All (2 mg QD n = 1): 0 n (%)
WBC decreased, Gr≥3 (2 mg QD n = 1): 0 n (%)
ALT increased, All (5 mg QD n = 3): 0 n (%)
ALT increased, Gr≥3 (5 mg QD n = 3): 0 n (%)
AST increased, All (5 mg QD n = 3): 0 n (%)
AST increased, Gr≥3 (5 mg QD n = 3): 0 n (%)
Abdominal distension, All (5 mg QD n = 3): 1 (33.3) n (%)
Abdominal distension, Gr≥3 (5 mg QD n = 3): 0 n (%)
Anemia (incl. hemoglobin decreased), All (5 mg QD n = 3): 2 (66.7) n (%)
Anemia (incl. hemoglobin decreased), Gr≥3 (5 mg QD n = 3): 1 (33.3) n (%)
Appetite decreased, All (5 mg QD n = 3): 1 (33.3) n (%)
Appetite decreased, Gr≥3 (5 mg QD n = 3): 0 n (%)
Asthenia, All (5 mg QD n = 3): 2 (66.7) n (%)
Asthenia, Gr≥3 (5 mg QD n = 3): 0 n (%)
Blood bilirubin increased, All (5 mg QD n = 3): 1 (33.3) n (%)
Blood bilirubin increased, Gr≥3 (5 mg QD n = 3): 0 n (%)
Blood creatinine increased, All (5 mg QD n = 3): 0 n (%)
Blood creatinine increased, Gr≥3 (5 mg QD n = 3): 0 n (%)
Hypokalemia, All (5 mg QD n = 3): 0 n (%)
Hypokalemia, Gr≥3 (5 mg QD n = 3): 0 n (%)
Hyponatremia, All (5 mg QD n = 3): 0 n (%)
Hyponatremia, Gr≥3 (5 mg QD n = 3): 0 n (%)
Nausea, All (5 mg QD n = 3): 1 (33.3) n (%)
Nausea, Gr≥3 (5 mg QD n = 3): 0 n (%)
Neutrophil count decreased, All (5 mg QD n = 3): 1 (33.3) n (%)
Neutrophil count decreased, Gr≥3 (5 mg QD n = 3): 0 n (%)
Pain in extremity, All (5 mg QD n = 3): 1 (33.3) n (%)
Pain in extremity, Gr≥3 (5 mg QD n = 3): 1 (33.3) n (%)
Platelet count decreased, All (5 mg QD n = 3): 2 (66.7) n (%)
Platelet count decreased, Gr≥3 (5 mg QD n = 3): 0 n (%)
Protein in urine, All (5 mg QD n = 3): 0 n (%)
Protein in urine, Gr≥3 (5 mg QD n = 3): 0 n (%)
Vomiting, All (5 mg QD n = 3): 0 n (%)
Vomiting, Gr≥3 (5 mg QD n = 3): 0 n (%)
WBC decreased, All (5 mg QD n = 3): 1 (33.3) n (%)
WBC decreased, Gr≥3 (5 mg QD n = 3): 0 n (%)
ALT increased, All (10 mg QD n = 3): 1 (33.3) n (%)
ALT increased, Gr≥3 (10 mg QD n = 3): 0 n (%)
AST increased, All (10 mg QD n = 3): 1 (33.3) n (%)
AST increased, Gr≥3 (10 mg QD n = 3): 0 n (%)
Abdominal distension, All (10 mg QD n = 3): 0 n (%)
Abdominal distension, Gr≥3 (10 mg QD n = 3): 0 n (%)
Anemia (incl. hemoglobin decreased), All (10 mg QD n = 3): 1 (33.3) n (%)
Anemia (incl. hemoglobin decreased), Gr≥3 (10 mg QD n = 3): 0 n (%)
Appetite decreased, All (10 mg QD n = 3): 1 (33.3) n (%)
Appetite decreased, Gr≥3 (10 mg QD n = 3): 0 n (%)
Asthenia, All (10 mg QD n = 3): 0 n (%)
Asthenia, Gr≥3 (10 mg QD n = 3): 0 n (%)
Blood bilirubin increased, All (10 mg QD n = 3): 0 n (%)
Blood bilirubin increased, Gr≥3 (10 mg QD n = 3): 0 n (%)
Blood creatinine increased, All (10 mg QD n = 3): 0 n (%)
Blood creatinine increased, Gr≥3 (10 mg QD n = 3): 0 n (%)
Hypokalemia, All (10 mg QD n = 3): 0 n (%)
Hypokalemia, Gr≥3 (10 mg QD n = 3): 0 n (%)
Hyponatremia, All (10 mg QD n = 3): 0 n (%)
Hyponatremia, Gr≥3 (10 mg QD n = 3): 0 n (%)
Nausea, All (10 mg QD n = 3): 0 n (%)
Nausea, Gr≥3 (10 mg QD n = 3): 0 n (%)
Neutrophil count decreased, All (10 mg QD n = 3): 0 n (%)
Neutrophil count decreased, Gr≥3 (10 mg QD n = 3): 0 n (%)
Pain in extremity, All (10 mg QD n = 3): 0 n (%)
Pain in extremity, Gr≥3 (10 mg QD n = 3): 0 n (%)
Platelet count decreased, All (10 mg QD n = 3): 0 n (%)
Platelet count decreased, Gr≥3 (10 mg QD n = 3): 0 n (%)
Protein in urine, All (10 mg QD n = 3): 1 (33.3) n (%)
Protein in urine, Gr≥3 (10 mg QD n = 3): 0 n (%)
Vomiting, All (10 mg QD n = 3): 0 n (%)
